Structures can show the parent of a compound that is named as a salt.
How the values were obtained:
[1] = Determination of the microsomal half-life, human liver microsomes; details: for microsomal CLint at 0.5 μM: human, liver microsomes, pH 7.4
[2] = Determination of the microsomal half-life, rat liver microsomes; details: for microsomal CLint at 0.5 μM: rat, liver microsomes, pH 7.4; for Rat mCl (mikrosomal clearance): rat liver microsomes, 0.5 μM test substance, 0.25 mg microsomal protein, pH 7.4, 37° C., NADPH
PDE10A (human) = biological target: T1, PDE10A (human) (Homo sapiens, UniProt Q9Y233); test: Measurement of PDE activity (HTRF cAMP kit), human PDE10A; type: biochemical; details: PDE enzymatic reaction, substrate 20 nM for PDE10, 60 minutes at 29 C
T1 construct: purchased BPS Bioscience
T1 sequence (Q9Y233 whole entry): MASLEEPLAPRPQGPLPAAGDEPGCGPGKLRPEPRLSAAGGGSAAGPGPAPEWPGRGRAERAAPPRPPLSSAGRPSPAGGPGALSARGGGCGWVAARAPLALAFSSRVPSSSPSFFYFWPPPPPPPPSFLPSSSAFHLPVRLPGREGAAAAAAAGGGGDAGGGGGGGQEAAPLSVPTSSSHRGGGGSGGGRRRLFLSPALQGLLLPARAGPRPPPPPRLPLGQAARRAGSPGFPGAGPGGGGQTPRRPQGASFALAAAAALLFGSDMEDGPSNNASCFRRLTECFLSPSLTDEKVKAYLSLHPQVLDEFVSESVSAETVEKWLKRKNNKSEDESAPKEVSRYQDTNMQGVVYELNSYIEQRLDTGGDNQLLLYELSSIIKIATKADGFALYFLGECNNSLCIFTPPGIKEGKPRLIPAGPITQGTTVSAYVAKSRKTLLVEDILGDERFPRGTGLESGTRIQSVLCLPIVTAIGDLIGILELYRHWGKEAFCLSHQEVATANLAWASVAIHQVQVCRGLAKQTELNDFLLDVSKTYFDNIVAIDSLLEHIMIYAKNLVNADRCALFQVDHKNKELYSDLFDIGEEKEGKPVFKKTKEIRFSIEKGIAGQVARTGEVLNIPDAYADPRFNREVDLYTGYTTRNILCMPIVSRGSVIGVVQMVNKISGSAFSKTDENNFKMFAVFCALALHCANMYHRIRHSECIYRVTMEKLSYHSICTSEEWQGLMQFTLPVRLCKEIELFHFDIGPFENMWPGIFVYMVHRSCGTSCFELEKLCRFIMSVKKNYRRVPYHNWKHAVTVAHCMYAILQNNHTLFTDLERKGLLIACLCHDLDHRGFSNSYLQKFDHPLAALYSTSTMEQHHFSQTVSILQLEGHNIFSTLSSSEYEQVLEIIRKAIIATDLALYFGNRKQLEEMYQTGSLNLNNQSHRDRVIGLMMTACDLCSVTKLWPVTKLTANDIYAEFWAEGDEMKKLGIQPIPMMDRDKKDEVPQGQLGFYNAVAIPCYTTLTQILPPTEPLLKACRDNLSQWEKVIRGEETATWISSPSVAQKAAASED
In short: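 Recombinant human PDE10A (10–250 pM range across PDEs) with 20 nM cAMP substrate in 20 mM Tris-HCl pH 7.5, 10 mM MgCl2, 0.1% BSA, compound pre-mixed with enzyme. Ran 60 min at 29 °C. Remaining cAMP read by HTRF, converted to % of uninhibited activity, and IC50 fitted.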

microsomal CLint at 0.5 μM [1] [µL/min/mg]	microsomal CLint at 0.5 μM [2] [µL/min/mg]	IC50 (PDE10A (human)) [nM]	Structure (SMILES)	further results
< 100	< 100	–	O=C1c2c(cccc2N2CCS(=O)(=O)CC2)CN1CCc1nc2ccccn2n1 [Example 232, 7-(1,1-Dioxothiomorpholin-4-yl)-2-(2-[1,2,4]triazolo[1,5-a]pyridin-2-yl-ethyl)-2,3-dihydro-isoindol-1-one]	–
> 220	100 to 220	–	CN1CCN(Cc2ccc(-c3cccc4c3C(=O)N(CCc3ccc5ccccc5n3)C4)cc2)CC1 [Example 167, 7-[4-(4-Methyl-piperazin-1-ylmethyl)-phenyl]-2-(2-quinolin-2-yl-ethyl)-2,3-dihydro-isoindol-1-one trifluoroacetate]	–
–	–	–	C[C@@H]1CN(c2cccc3c2C(=O)N(CCc2ccc4ccccc4n2)C3)CC[C@@H]1c1ccc(OC(F)(F)F)cc1F.O=C(O)C(F)(F)F [Example 147, 7-[(3S,4S)-4-(2-Fluoro-4-trifluoromethoxy-phenyl)-3-methyl-piperidin-1-yl]-2-(2-quinolin-2-yl-ethyl)-2,3-dihydro-isoindol-1-one trifluororacetate]	Human mCl (mikrosomal clearance) ([1]; human liver microsomes, 0.5 μM test substance, 0.25 mg microsomal protein, pH 7.4, 37° C., NADPH): ∘ (∘ not avialable or >220 μl min^−1 mg^−1); Rat mCl (mikrosomal clearance) [2]: + (+: 100-220 μl min^−1 mg^−1)
100 to 220	–	200 to 500	O=C1c2c(cccc2-c2ccncc2)CN1CCc1cccc(-c2ncccn2)c1 [Example 121, 7-(Pyridin-4-yl)-2-(3-(pyrimidin-2-yl)phenethyl)isoindolin-1-one]	–
100 to 220	> 220	–	O=C1c2cccc(-c3ccncc3)c2C(=O)N1CCc1ccc2ccccc2n1 [Example 249, 4-Pyridin-4-yl-2-(2-quinolin-2-yl-ethyl)-isoindole-1,3-dione dihydrochloride]	–
–	100 to 220	–	O=C1c2c(N3CCOCC3)ccnc2CN1CCc1cc2ccccc2o1 [compound 397, 6-[2-(Benzofuran-2-yl)ethyl]-4-morpholino-7H-pyrrolo[3,4-b]pyridin-5-one]	–
< 100	–	–	CN1CC2CN(c3cccc4c3C(=O)N(CCc3ccc5ccccc5n3)C4)CC2C1 (stereo not shown) [Example 154, 7-(5-Methyl-hexahydro-pyrrolo[3,4-c]pyrrol-2-yl)-2-(2-quinolin-2-yl-ethyl)-2,3-dihydro-isoindol-1-one]	Rat mCl (mikrosomal clearance) [2]: −∘
< 100	100 to 220	–	CC1CCN(c2cccc3c2C(=O)N(CCc2ccc4ccccc4n2)C3)CC1N (stereo not shown) [Example 174, 7-(3-Amino-4-methyl-piperidin-1-yl)-2-(2-quinolin-2-yl-ethyl)-2,3-dihydro-isoindol-1-one]	–
< 100	> 220	–	O=C1c2c(cccc2N2CC3CNCC3C2)CN1CCc1ccc2ccccc2n1 (stereo not shown) [Example 192, 7-(Hexahydro-pyrrolo[3,4-c]pyrrol-2-yl)-2-(2-quinolin-2-yl-ethyl)-2,3-dihydro-isoindol-1-one]	–
< 100	< 100	–	Cn1c(CCN2Cc3nccc(NC4COC4)c3C2=O)nc2ccccc21 [Example 359, 6-[2-(1-Methyl-1H-benzoimidazol-2-yl)-ethyl]-4-(oxetan-3-ylamino)-6,7-dihydro-pyrrolo[3,4-b]pyridin-5-one]	–
> 220	100 to 220	–	O=C1c2c(cccc2OCc2ccncc2)CN1CCc1ccc2ccccc2n1 [Example 128, 7-(Pyridin-4-ylmethoxy)-2-(2-quinolin-2-yl-ethyl)-2,3-dihydro-isoindol-1-one]	–
< 100	< 100	–	CN1CCN(c2ccnc3c2C(=O)N(CCc2cn4ccccc4n2)C3)CC1 [Example 273, 6-(2-Imidazo[1,2-a]pyridin-2-yl-ethyl)-4-(4-methyl-piperazin-1-yl)-6,7-dihydro-pyrrolo[3,4-b]pyridin-5-one]	–
< 100	< 100	–	COc1ccc(NC2COC2)c2c1CN(CCc1cn3ccccc3n1)C2=O [Example 362, 2-(2-Imidazo[1,2-a]pyridin-2-yl-ethyl)-4-methoxy-7-(oxetan-3-ylamino)-2,3-dihydro-isoindol-1-one]	–
< 100	< 100	–	O=C1c2c(-c3ccncc3)ccnc2CN1CCc1cc2ccccc2o1 [compound 391, 6-[2-(Benzofuran-2-yl)ethyl]-4-(4-pyridyl)-7H-pyrrolo[3,4-b]pyridin-5-one]	–
< 100	100 to 220	–	Cc1nc(CCN2Cc3nccc(-c4ccncc4)c3C2=O)sc1C [compound 408, 6-[2-(4,5-Dimethylthiazol-2-yl)ethyl]-4-(4-pyridyl)-7H-pyrrolo[3,4-b]pyridin-5-one]	–
–	–	< 100	O=C1c2c(N3CCC(F)(F)CC3)ccnc2CN1CCc1ccc2ccccc2n1 [Example 258, 4-(4,4-Difluoro-piperidin-1-yl)-6-(2-quinolin-2-yl-ethyl)-6,7-dihydro-pyrrolo[3,4-b]pyridin-5-one]	–
–	–	200 to 500	O=C1c2c(cccc2-c2ccc3[nH]ncc3c2)CN1CCc1ccc2ccccc2n1 [Example 93, 7-(1H-Indazol-5-yl)-2-(2-quinolin-2-yl-ethyl)-2,3-dihydro-isoindol-1-one]	–
–	–	100 to 200	COc1cnccc1-c1cccc2c1CN(CCc1ccc3ccccc3n1)C2=O [compound 388, 4-(3-Methoxy-4-pyridyl)-2-[2-(2-quinolyl)ethyl]isoindolin-1-one]	–
–	–	200 to 500	O=C1c2c(cccc2-c2ccc(F)c(F)c2)CN1CCc1ccc2ccccc2n1 [Example 33, 7-(3,4-Difluoro-phenyl)-2-(2-quinolin-2-yl-ethyl)-2,3-dihydro-isoindol-1-one]	–
–	–	100 to 200	O=C1c2c(cccc2-c2ccsc2)CN1CCc1ccc2ccccc2n1 [Example 25, 2-(2-Quinolin-2-yl-ethyl)-7-thiophen-3-yl-2,3-dihydro-isoindol-1-one]	–
–	–	< 100	Cn1c(CCN2Cc3cccc(-c4ccncc4)c3C2=O)nc2cc(F)ccc21 [Example 221, 2-[2-(5-Fluoro-1-methyl-1H-benzoimidazol-2-yl)-ethyl]-7-pyridin-4-yl-2,3-dihydro-isoindol-1-one trifluoroacetate]	–
–	–	< 100	O=C1c2c(-c3ccncc3)ccc(OCF)c2CN1CCc1ccc2ccccc2n1 [Example 299, 4-Fluoromethoxy-7-pyridin-4-yl-2-(2-quinolin-2-yl-ethyl)-2,3-dihydro-isoindol-1-one]	–
–	–	< 100	O=C1c2cccc(-c3cncnc3)c2CN1CCc1ccc2ccccc2n1 [Example 208, 4-Pyrimidin-5-yl-2-(2-quinolin-2-yl-ethyl)-2,3-dihydro-isoindol-1-one]	–
–	–	100 to 200	Cc1ccsc1-c1ccnc2c1C(=O)N(CCc1ccc3ccccc3n1)C2 [Example 336, 4-(3-Methyl-thiophen-2-yl)-6-(2-quinolin-2-yl-ethyl)-6,7-dihydro-pyrrolo[3,4-b]pyridin-5-one]	–
–	–	< 100	Cc1ncc(-c2cccc3c2CN(CCc2ccc4ccccc4n2)C3=O)s1 [Example 342, 4-(2-Methyl-thiazol-5-yl)-2-(2-quinolin-2-yl-ethyl)-2,3-dihydro-isoindol-1-one]	–
–	–	200 to 500	O=C1c2c(cccc2-c2cccc(F)c2F)CN1CCc1ccc2ccccc2n1 [Example 50, 7-(2,3-Difluoro-phenyl)-2-(2-quinolin-2-yl-ethyl)-2,3-dihydro-isoindol-1-one]	–

Reference: patent publication US9938269B2, “Inhibitor compounds of phosphodiesterase type 10A” (ABBVIE INC., priority 2011, dated 2018)
